# From ChEMBL document CHEMBL1201862, “PubChem BioAssay data set” (2004)
#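 The compound was tested at five concentrations on cells cultured in 96-well plates, with a 48-hour exposure period. GI50: concentration for 50% inhibition of growth.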 Calls of active or inactive are those of the source. No stated cut-off is given here; in the data, active = GI50 up to about 1.1 µM and inactive = higher.
# Columns and labels:
# Assay in all cases: NCI-60 cell line screen, 48 h
# CAKI-1 = test system: CAKI-1
# UACC-62 = test system: UACC-62
# UO-31 = test system: UO-31
# CCRF-CEM = test system: CCRF-CEM
# MOLT-4 = test system: MOLT-4
# HCT-15 = test system: HCT-15
# NCI-H226 = test system: NCI-H226
# MDA-N = test system: MDA-N
# SK-MEL-2 = test system: SK-MEL-2
# ACHN = test system: ACHN
# TK-10 = test system: TK-10
# COLO 205 = test system: COLO 205
# SF-539 = test system: SF-539
# HCC 2998 = test system: HCC 2998
# LXFL 529 = test system: LXFL 529
# Hs-578T = test system: Hs-578T
# Malme-3M = test system: Malme-3M
# SK-OV-3 = test system: SK-OV-3
# A498 = test system: A498
# HT-29 = test system: HT-29
SMILES,GI50 (CAKI-1),GI50 (UACC-62),GI50 (UO-31),GI50 (CCRF-CEM),GI50 (MOLT-4),GI50 (HCT-15),GI50 (NCI-H226),GI50 (MDA-N),GI50 (SK-MEL-2),GI50 (ACHN),GI50 (TK-10),GI50 (COLO 205),GI50 (SF-539),GI50 (HCC 2998),GI50 (LXFL 529),GI50 (Hs-578T),GI50 (Malme-3M),GI50 (SK-OV-3),GI50 (A498),GI50 (HT-29)
C=C(C)c1nc(Oc2ccccc2)nc(Oc2ccccc2)n1,2.06 µM (inactive),5.78 µM (inactive),17.6 µM (inactive),2.54 µM (inactive),0.664 µM (active),2.81 µM,19.9 µM (inactive),3.5 µM (inactive),2.21 µM (inactive),8.63 µM (inactive),3.72 µM (inactive),5.42 µM (inactive),6.37 µM (inactive),3.99 µM (inactive),2 µM (inactive),4.49 µM (inactive),13.9 µM (inactive),17.6 µM (inactive),17.3 µM (inactive),3.99 µM (inactive)
CCOC(=O)C1=C(NC)OC/C1=N\NC(=O)c1ccccc1O,17.1 µM (inactive),7.03 µM (inactive),4.83 µM (inactive),14.9 µM (inactive),22.9 µM (inactive),,13.3 µM (inactive),,12.8 µM (inactive),,> 100 µM (inactive),> 100 µM (inactive),13 µM (inactive),25.1 µM (inactive),39.8 µM (inactive),,26.9 µM (inactive),> 100 µM (inactive),> 100 µM (inactive),
CCCCCCCCCCCCCCCCCC(=O)OCC(CN(C)CCN(C)C)OC(=O)CCCCCCCCCCCCCCCCC (centres undefined),> 100 µM (inactive),> 100 µM (inactive),> 100 µM (inactive),42.9 µM (inactive),27.1 µM (inactive),> 100 µM,> 100 µM (inactive),,> 100 µM (inactive),91.6 µM (inactive),> 100 µM (inactive),> 100 µM (inactive),,75.9 µM (inactive),72.4 µM (inactive),,> 100 µM (inactive),> 100 µM (inactive),> 100 µM (inactive),40.2 µM (inactive)
CCCCCC(C[N+]1(C)CCOCC1)C(=O)/C=C/c1ccccc1 (centres undefined),16.9 µM (inactive),9.59 µM (inactive),16.1 µM (inactive),2.71 µM (inactive),3.03 µM (inactive),8.34 µM,10.8 µM (inactive),,15.2 µM (inactive),23.6 µM (inactive),20.3 µM (inactive),15.7 µM (inactive),9.79 µM (inactive),18.2 µM (inactive),3.18 µM (inactive),,16.9 µM (inactive),46.5 µM (inactive),15.1 µM (inactive),5.31 µM (inactive)
CC(=O)N1[C@H](C(=O)O)CS[C@H]1c1ccncc1,> 100 µM (inactive),> 100 µM (inactive),> 100 µM (inactive),> 100 µM (inactive),> 100 µM (inactive),> 100 µM,> 100 µM (inactive),,,> 100 µM (inactive),> 100 µM (inactive),> 100 µM (inactive),> 100 µM (inactive),> 100 µM (inactive),> 100 µM (inactive),,> 100 µM (inactive),,> 100 µM (inactive),> 100 µM (inactive)
O=C1/C(=C/c2ccc(Cl)cc2)CCC1CN1CCOCC1 (centres undefined),4.37 µM (inactive),5.51 µM (inactive),9.08 µM (inactive),1.13 µM (inactive),1.12 µM (inactive),3.83 µM,20.6 µM (inactive),6.46 µM (inactive),16.5 µM (inactive),11.2 µM (inactive),7.36 µM (inactive),7.8 µM (inactive),10.6 µM (inactive),9.75 µM (inactive),2.58 µM (inactive),4.31 µM (inactive),6.52 µM (inactive),18 µM (inactive),19.6 µM (inactive),7.03 µM (inactive)
S=P1(c2ccccc2)Nc2ccc(Cl)cc2N1 (centres undefined),32.6 µM (inactive),8.09 µM (inactive),56.4 µM (inactive),4.45 µM (inactive),20 µM (inactive),58.5 µM,> 100 µM (inactive),,> 100 µM (inactive),89.1 µM (inactive),> 100 µM (inactive),19.9 µM (inactive),> 100 µM (inactive),> 100 µM (inactive),17.6 µM (inactive),,> 100 µM (inactive),37.5 µM (inactive),> 100 µM (inactive),> 100 µM (inactive)
Cc1cc(N(CCC#N)CCC#N)ccc1/N=N/c1ccc(S(N)(=O)=O)cc1,28.4 µM (inactive),> 100 µM (inactive),85.5 µM (inactive),> 100 µM (inactive),> 100 µM (inactive),> 100 µM,> 100 µM (inactive),,> 100 µM (inactive),> 100 µM (inactive),> 100 µM (inactive),> 100 µM (inactive),> 100 µM (inactive),> 100 µM (inactive),> 100 µM (inactive),,> 100 µM (inactive),> 100 µM (inactive),> 100 µM (inactive),> 100 µM (inactive)
Clc1ccc(C[P+](c2ccccc2)(c2ccccc2)c2ccccc2)c(Cl)c1,,2.4 µM (inactive),,2.99 µM (inactive),3.3 µM (inactive),24 µM,2.34 µM (inactive),,2.18 µM (inactive),10 µM (inactive),6.52 µM (inactive),1.16 µM (inactive),3.06 µM (inactive),3.47 µM (inactive),1.67 µM (inactive),,3.87 µM (inactive),3.75 µM (inactive),4.61 µM (inactive),1.66 µM (inactive)
Cc1nc([N+](=O)[O-])cn1CC(=N)N,,> 100 µM (inactive),> 100 µM (inactive),> 100 µM (inactive),> 100 µM (inactive),> 100 µM,> 100 µM (inactive),,> 100 µM (inactive),> 100 µM (inactive),> 100 µM (inactive),> 100 µM (inactive),> 100 µM (inactive),> 100 µM (inactive),> 100 µM (inactive),,> 100 µM (inactive),,> 100 µM (inactive),> 100 µM (inactive)
CC(=O)[O-].[O-]c1c(Cl)cc(Cl)cc1/C=N/Nc1ccccn1.[Zn+2],,0.435 µM (active),0.31 µM (active),0.244 µM (active),0.183 µM (active),0.403 µM,> 100 µM (inactive),,0.0601 µM (active),0.535 µM (active),,15.2 µM (inactive),1.26 µM (inactive),9.86 µM (inactive),0.436 µM (active),,0.76 µM (active),,> 100 µM (inactive),6.82 µM (inactive)
NC(=O)/C(=N\NC(=O)c1cc2ccccc2cc1O)C1C(=O)N(c2ccccc2)N=C1N (centres undefined),,15.2 µM (inactive),7.73 µM (inactive),11.7 µM (inactive),21.4 µM (inactive),,24.2 µM (inactive),,21.7 µM (inactive),29.9 µM (inactive),> 100 µM (inactive),28.8 µM (inactive),,37.9 µM (inactive),59.3 µM (inactive),,58.7 µM (inactive),,1.23 µM (inactive),44.2 µM (inactive)
CCOC(=O)Cc1ccc2c(c1O)C(=O)c1c(ccc(CC(=O)OCC)c1O)C2=O,,> 100 µM (inactive),> 100 µM (inactive),59 µM (inactive),87.9 µM (inactive),,43.5 µM (inactive),,> 100 µM (inactive),> 100 µM (inactive),31.9 µM (inactive),> 100 µM (inactive),> 100 µM (inactive),> 100 µM (inactive),> 100 µM (inactive),,30.1 µM (inactive),> 100 µM (inactive),> 100 µM (inactive),> 100 µM (inactive)
